# In patent US20230406885A1, “CYCLIC PEPTIDES FOR TRAPPING INTERLEUKIN-1 BETA” (MERCK SHARP & DOHME LLC, priority 2022, published 2023):
# *1 amine or outer side, *2 acyl side, *3 side chain or, on linkers, in order; H or OH if unused. Where a SMILES comes first, the peptide text is derived from it. [ ]: non-standard residue; d: D form. Trp(βS-Me,4-F) = C[C@@H](c1c[nH]c2cccc(F)c12)[C@H](N)C(=O)O; Bip(4'-COOH) = N[C@@H](Cc1ccc(-c2ccc(C(=O)O)cc2)cc1)C(=O)O; Phe(3-CH2NH2) = O=C([C@H](Cc1cccc(CN[*:3])c1)N[*:1])[*:2]; 1Nal(3S-Me) = C[C@@H](c1cccc2ccccc12)[C@H](N)C(=O)O; X11 = O=C([C@@H]1C[C@@H](NCc2ccccc2)CN1[*:1])[*:2]; Phe(3-allyloxy) = C=CCOc1cccc(C[C@H](N)C(=O)O)c1; Phe(3-Ph) = N[C@@H](Cc1cccc(-c2ccccc2)c1)C(=O)O; Phe(4-COOH) = N[C@@H](Cc1ccc(C(=O)O)cc1)C(=O)O; Pro(4R-NH2) = N[C@H]1CN[C@H](C(=O)O)C1; hTyr = N[C@@H](CCc1ccc(O)cc1)C(=O)O; dDab = NCC[C@@H](N)C(=O)O; dNMeA = CN[C@H](C)C(=O)O; Nva = CCC[C@H](N)C(=O)O; Dap = NC[C@H](N)C(=O)O
# Biological target: T1, Recombinant human IL-1β (Homo sapiens, UniProt P01584)
# T1 construct: purchased BioLegend 579404
# T1 sequence (P01584 117-269): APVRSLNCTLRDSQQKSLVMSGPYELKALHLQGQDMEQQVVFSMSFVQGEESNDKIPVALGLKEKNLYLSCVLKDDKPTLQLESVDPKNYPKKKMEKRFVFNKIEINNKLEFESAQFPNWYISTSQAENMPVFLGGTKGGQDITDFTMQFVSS
# Assay: IL-6 assay in MRC5 cells: inhibition of IL-1β induced IL-6 secretion (AlphaLISA)
# Assay type: cell-based
# Details: inhibition of IL-1β induced IL-6 secretion in MRC5 cells; IL-1β pre-incubated 1 hour with compound; read-out: MRC5 IC50
# In short: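 IL-1β at 2×EC80 in seeding medium (EMEM, 0.025% BSA) preincubated 1 h at ambient temperature with compound, then 3000 MRC5 cells/well added and incubated overnight at 37 °C, 5% CO2. IL-6 in conditioned medium quantified by AlphaLISA; IC50 from 4-parameter logistic fit.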
row,Structure (SMILES),IC50 [nM]
1,"CC(C)C[C@@H]1NC(=O)[C@H](CCCCN)NC(=O)[C@H](Cc2ccc(-c3ccc(C(=O)O)cc3)cc2)NC(=O)CNC(=O)[C@@H](C)N(C)C(=O)[C@H](CC(=O)O)NC(=O)[C@H]([C@@H](C)c2c[nH]c3cccc(F)c23)NC(=O)[C@@H]2C[C@@H](N)CN2C(=O)CNC(=O)[C@H](Cc2ccc(C(=O)O)cc2)NC(=O)[C@H](Cc2c[nH]c3ccccc23)NC(=O)[C@H](Cc2ccc(-c3ccc(C(=O)O)cc3)cc2)NC(=O)[C@H](CCc2ccc(O)cc2)NC(=O)CNC1=O [Example 70] (cyclo([Bip(4'-COOH)]W[Phe(4-COOH)]G[Pro(4R-NH2)][Trp(βS-Me,4-F)]D[dNMeA]G[Bip(4'-COOH)]KLG[hTyr]))",0.0973
2,"C[C@@H]1C(=O)NCC(=O)N[C@@H](Cc2ccc(-c3ccc(C(=O)O)cc3)cc2)C(=O)N[C@@H](Cc2cccc(CN)c2)C(=O)N[C@@H](CO)C(=O)N[C@H](C)C(=O)N[C@@H](CCc2ccc(O)cc2)C(=O)N[C@@H](Cc2ccc(-c3ccc(C(=O)O)cc3)cc2)C(=O)N[C@@H](Cc2c[nH]c3ccccc23)C(=O)N[C@@H](Cc2ccc(C(=O)O)cc2)C(=O)NCC(=O)N2C[C@H](N)C[C@H]2C(=O)N[C@@H]([C@@H](C)c2c[nH]c3cccc(F)c23)C(=O)N[C@@H](CC(=O)O)C(=O)N1C [Example 74] (cyclo([Bip(4'-COOH)]W[Phe(4-COOH)]G[Pro(4R-NH2)][Trp(βS-Me,4-F)]D[dNMeA]G[Bip(4'-COOH)][Phe(3-CH2NH2)]S[dA][hTyr]))",0.296
3,"C[C@@H]1C(=O)NCC(=O)N[C@@H](Cc2ccc(-c3ccc(C(=O)O)cc3)cc2)C(=O)N[C@@H](Cc2c[nH]c3ccccc23)C(=O)NCC(=O)N[C@H](CCN)C(=O)N[C@@H](CCc2ccc(O)cc2)C(=O)N[C@@H](Cc2ccc(-c3ccc(C(=O)O)cc3)cc2)C(=O)N[C@@H](Cc2c[nH]c3ccccc23)C(=O)N[C@@H](Cc2ccc(C(=O)O)cc2)C(=O)NCC(=O)N2C[C@H](N)C[C@H]2C(=O)N[C@@H]([C@@H](C)c2c[nH]c3cccc(F)c23)C(=O)N[C@@H](CC(=O)O)C(=O)N1C [Example 77] (cyclo([Bip(4'-COOH)]W[Phe(4-COOH)]G[Pro(4R-NH2)][Trp(βS-Me,4-F)]D[dNMeA]G[Bip(4'-COOH)]WG[dDab][hTyr]))",0.0601
4,"CCC[C@@H]1NC(=O)[C@H](Cc2c[nH]c3ccccc23)NC(=O)[C@H](Cc2ccc(-c3ccc(C(=O)O)cc3)cc2)NC(=O)CNC(=O)[C@@H](C)N(C)C(=O)[C@H](CC(=O)O)NC(=O)[C@H]([C@@H](C)c2c[nH]c3cccc(F)c23)NC(=O)[C@@H]2C[C@@H](N)CN2C(=O)CNC(=O)[C@H](Cc2ccc(C(=O)O)cc2)NC(=O)[C@H](Cc2c[nH]c3ccccc23)NC(=O)[C@H](Cc2ccc(-c3ccc(C(=O)O)cc3)cc2)NC(=O)[C@H](C)NC(=O)[C@@H](C)NC1=O [Example 79] (cyclo([Bip(4'-COOH)]W[Phe(4-COOH)]G[Pro(4R-NH2)][Trp(βS-Me,4-F)]D[dNMeA]G[Bip(4'-COOH)]W[Nva][dA]A))",0.189
5,"CC(C)C[C@@H]1NC(=O)[C@H](CCCCN)NC(=O)[C@H](Cc2ccc(-c3ccc(C(=O)O)cc3)cc2)NC(=O)CNC(=O)[C@@H](C)N(C)C(=O)[C@H](CC(N)=O)NC(=O)[C@H]([C@@H](C)c2c[nH]c3cccc(F)c23)NC(=O)[C@@H]2C[C@@H](N)CN2C(=O)CNC(=O)[C@H](Cc2ccc(C(=O)O)cc2)NC(=O)[C@H](Cc2c[nH]c3ccccc23)NC(=O)[C@H](Cc2ccc(-c3ccc(C(=O)O)cc3)cc2)NC(=O)[C@H](CCc2ccc(O)cc2)NC(=O)[C@@H](C)NC1=O [Example 80] (cyclo([Bip(4'-COOH)]W[Phe(4-COOH)]G[Pro(4R-NH2)][Trp(βS-Me,4-F)]N[dNMeA]G[Bip(4'-COOH)]KL[dA][hTyr]))",0.291
6,"CC(C)C[C@@H]1NC(=O)[C@H](CCCCN)NC(=O)[C@H](Cc2ccc(-c3ccc(C(=O)O)cc3)cc2)NC(=O)CNC(=O)[C@@H](C)N(C)C(=O)[C@H](CC(N)=O)NC(=O)[C@H]([C@@H](C)c2c[nH]c3cccc(F)c23)NC(=O)[C@@H]2C[C@@H](N)CN2C(=O)CNC(=O)[C@H](Cc2ccc(C(=O)O)cc2)NC(=O)[C@H](Cc2c[nH]c3ccccc23)NC(=O)[C@H](Cc2ccc(-c3ccc(C(=O)O)cc3)cc2)NC(=O)[C@H](CCc2ccc(O)cc2)NC(=O)[C@@H](CCN)NC1=O [Example 81] (cyclo([Bip(4'-COOH)]W[Phe(4-COOH)]G[Pro(4R-NH2)][Trp(βS-Me,4-F)]N[dNMeA]G[Bip(4'-COOH)]KL[dDab][hTyr]))",0.255

# More lines, in order of falling IC50, values ahead:
row,IC50 [nM],Structure (SMILES)
1,0.165,"CC(C)C[C@@H]1NC(=O)[C@H](Cc2cccc(-c3ccccc3)c2)NC(=O)[C@H](Cc2ccc(-c3ccc(C(=O)O)cc3)cc2)NC(=O)CNC(=O)[C@@H](C)N(C)C(=O)[C@H](CC(=O)O)NC(=O)[C@H]([C@@H](C)c2c[nH]c3cccc(F)c23)NC(=O)[C@@H]2C[C@@H](N)CN2C(=O)CNC(=O)[C@H](Cc2ccc(C(=O)O)cc2)NC(=O)[C@H](Cc2c[nH]c3ccccc23)NC(=O)[C@H](Cc2ccc(-c3ccc(C(=O)O)cc3)cc2)NC(=O)[C@H](CCc2ccc(O)cc2)NC(=O)[C@@H](C)NC1=O [Example 75] (cyclo([Bip(4'-COOH)]W[Phe(4-COOH)]G[Pro(4R-NH2)][Trp(βS-Me,4-F)]D[dNMeA]G[Bip(4'-COOH)][Phe(3-Ph)]L[dA][hTyr]))"
2,0.122,"C=CCOc1cccc(C[C@@H]2NC(=O)[C@H](Cc3ccc(-c4ccc(C(=O)O)cc4)cc3)NC(=O)CNC(=O)[C@@H](C)N(C)C(=O)[C@H](CC(=O)O)NC(=O)[C@H]([C@@H](C)c3c[nH]c4cccc(F)c34)NC(=O)[C@@H]3C[C@@H](N)CN3C(=O)CNC(=O)[C@H](Cc3ccc(C(=O)O)cc3)NC(=O)[C@H](Cc3c[nH]c4ccccc34)NC(=O)[C@H](Cc3ccc(-c4ccc(C(=O)O)cc4)cc3)NC(=O)[C@H](CCc3ccc(O)cc3)NC(=O)[C@@H](C)NC(=O)[C@H](CC(C)C)NC2=O)c1 [Example 76] (cyclo([Bip(4'-COOH)]W[Phe(4-COOH)]G[Pro(4R-NH2)][Trp(βS-Me,4-F)]D[dNMeA]G[Bip(4'-COOH)][Phe(3-allyloxy)]L[dA][hTyr]))"
3,0.107,"C[C@@H]1C(=O)NCC(=O)N[C@@H](Cc2ccc(-c3ccc(C(=O)O)cc3)cc2)C(=O)N[C@@H](CCCCN)C(=O)N[C@@H](CO)C(=O)N[C@H](C)C(=O)N[C@@H](CCc2ccc(O)cc2)C(=O)N[C@@H](Cc2ccc(-c3ccc(C(=O)O)cc3)cc2)C(=O)N[C@@H](Cc2c[nH]c3ccccc23)C(=O)N[C@@H](Cc2ccc(C(=O)O)cc2)C(=O)NCC(=O)N2C[C@H](N)C[C@H]2C(=O)N[C@@H]([C@@H](C)c2c[nH]c3cccc(F)c23)C(=O)N[C@@H](CC(=O)O)C(=O)N1C [Example 72] (cyclo([Bip(4'-COOH)]W[Phe(4-COOH)]G[Pro(4R-NH2)][Trp(βS-Me,4-F)]D[dNMeA]G[Bip(4'-COOH)]KS[dA][hTyr]))"
4,0.0926,"CCC[C@@H]1NC(=O)[C@H](CCCCN)NC(=O)[C@H](Cc2ccc(-c3ccc(C(=O)O)cc3)cc2)NC(=O)CNC(=O)[C@@H](C)N(C)C(=O)[C@H](CC(=O)O)NC(=O)[C@H]([C@@H](C)c2c[nH]c3cccc(F)c23)NC(=O)[C@@H]2C[C@@H](N)CN2C(=O)CNC(=O)[C@H](Cc2ccc(C(=O)O)cc2)NC(=O)[C@H](Cc2c[nH]c3ccccc23)NC(=O)[C@H](Cc2ccc(-c3ccc(C(=O)O)cc3)cc2)NC(=O)[C@H](CCc2ccc(O)cc2)NC(=O)[C@@H](C)NC1=O [Example 71] (cyclo([Bip(4'-COOH)]W[Phe(4-COOH)]G[Pro(4R-NH2)][Trp(βS-Me,4-F)]D[dNMeA]G[Bip(4'-COOH)]K[Nva][dA][hTyr]))"
5,0.0732,"CC(C)C[C@@H]1NC(=O)[C@H](Cc2c[nH]c3ccccc23)NC(=O)[C@H](Cc2ccc(-c3ccc(C(=O)O)cc3)cc2)NC(=O)CNC(=O)[C@@H](C)N(C)C(=O)[C@H](CC(=O)O)NC(=O)[C@H]([C@@H](C)c2c[nH]c3cccc(F)c23)NC(=O)[C@@H]2C[C@@H](N)CN2C(=O)CNC(=O)[C@H](Cc2ccc(C(=O)O)cc2)NC(=O)[C@H](Cc2c[nH]c3ccccc23)NC(=O)[C@H](Cc2ccc(-c3ccc(C(=O)O)cc3)cc2)NC(=O)[C@H](CCc2ccc(O)cc2)NC(=O)[C@@H](C)NC1=O [Example 78] (cyclo([Bip(4'-COOH)]W[Phe(4-COOH)]G[Pro(4R-NH2)][Trp(βS-Me,4-F)]D[dNMeA]G[Bip(4'-COOH)]WL[dA][hTyr]))"
6,0.0509,"CC(C)C[C@@H]1NC(=O)[C@H](Cc2cccc(CN)c2)NC(=O)[C@H](Cc2ccc(-c3ccc(C(=O)O)cc3)cc2)NC(=O)CNC(=O)[C@@H](C)N(C)C(=O)[C@H](CC(=O)O)NC(=O)[C@H]([C@@H](C)c2c[nH]c3cccc(F)c23)NC(=O)[C@@H]2C[C@@H](N)CN2C(=O)CNC(=O)[C@H](Cc2ccc(C(=O)O)cc2)NC(=O)[C@H](Cc2c[nH]c3ccccc23)NC(=O)[C@H](Cc2ccc(-c3ccc(C(=O)O)cc3)cc2)NC(=O)[C@H](CCc2ccc(O)cc2)NC(=O)[C@@H](C)NC1=O [Example 73] (cyclo([Bip(4'-COOH)]W[Phe(4-COOH)]G[Pro(4R-NH2)][Trp(βS-Me,4-F)]D[dNMeA]G[Bip(4'-COOH)][Phe(3-CH2NH2)]L[dA][hTyr]))"
7,0.0157,C[C@@H]1C(=O)NCC(=O)N[C@@H](Cc2ccc(-c3ccc(C(=O)O)cc3)cc2)C(=O)N[C@@H](Cc2c[nH]c3ccccc23)C(=O)N[C@@H](CN)C(=O)N[C@H](C)C(=O)N[C@@H](CCc2ccc(O)cc2)C(=O)N[C@@H](Cc2ccc(-c3ccc(C(=O)O)cc3)cc2)C(=O)N[C@@H](Cc2c[nH]c3ccccc23)C(=O)N[C@@H](Cc2ccc(C(=O)O)cc2)C(=O)NCC(=O)N2C[C@H](NCc3ccccc3)C[C@H]2C(=O)N[C@@H]([C@@H](C)c2cccc3ccccc23)C(=O)N[C@@H](CC(=O)O)C(=O)N1C [Example 82] (cyclo([Bip(4'-COOH)]W[Phe(4-COOH)]G[X11][1Nal(3S-Me)]D[dNMeA]G[Bip(4'-COOH)]W[Dap][dA][hTyr]))
